Experimental data taken from patent US9868690B2, “Prodrugs of monomethyl fumarate (MMF)” (RATIOPHARM GMBH, priority 2013, dated 2018).
Counter-ions that a name gives are not always drawn.

Test: Kinetic of MMF-release during incubation in intestinal fluid from the minipig
Assay type: in vitro ADME, Göttingen SPF minipig
Conditions: incubation in minipig small intestinal fluid diluted 1/20 v/v with 50 mM KH2PO4, pH 6.8, 37° C., samples 0-120 min (up to 1,320 min); reference DMF
Method: Investigation and Comparison of the Kinetic of MMF-Release of the Different Compounds of the Present Invention and DMF During Incubation in Intestinal Fluid from the Minipig
Intestinal fluid samples were prepared at CiToxLAB Scantox A/S. The samples were taken from 1 female Göttingen SPF minipig from CiToxLAB Scantox A/S standard stock, originally obtained from Ellegaard Göttingen Minipigs A/S, DK-4261 Dalmose, Denmark. The minipig was 10 months old and the body weight was 21 kg. The minipig was identified by an individual number tagged to the pinna of one ear (animal number is documented in the raw data).
The minipig was fasted for approximately 28 hours before sampling of intestinal fluid. On the day of sampling, the minipig was weighed and anaesthetised by an intramuscular injection in the neck or in the left hind leg (about 0.3 ml per kg body weight) of a mixture of Zoletil 50 Vet., Virbac, France (125 mg tiletamine and 125 mg zolazepam), Rompun Vet., Bayer, Germany (20 mg xylazine/ml, 6.5 ml), Ketaminol Vet., Veterinaria AG, Switzerland (100 mg ketamine/ml, 1.5 ml) and Methadon DAK, Nycomed Danmark, Denmark (10 mg methadon/ml, 2.5 ml).
Intestinal fluid was obtained by flushing one jejunal segment, measuring 30.2 cm, with saline. Intestinal fluid together with saline used for flushing was placed in centrifuge tubes. All samples were frozen at −70° C. and shipped on dry ice to the Sponsor for further use.
• Instrument: Acquity UPLC system coupled with a TQ detector (triple quadruple mass spectrometer) UPLC Method: • Column: Phenomenex Kinetex C18, 100 A, 2.6 μm (150×4.6 mm) • flow: 0.4 ml/min • split: appr. 100 μl/min to MS • temperature 30° C. • solvent system (isocratic): • Solvent A 25% water with 0.1% acetic acid • Solvent B 75% methanol with 0.1% acetic acid • stoptime: 6 min • autosampler temperature: 8° C. • injection volume: 4 μl • retention time: MMF: 4.3 min • MEF: 4.7 min Mass Spectrometry • software: Masslynx 4.1 • detection mode: electrospray/negative ions (ESP−) • capillary voltage: 2.3 kV • source temperature: 100° C. • desolvation temperature: 450° C. • cone voltage: 18 V • desolvation gas: N2, 650 L/h • cone gas: N2, 20 L/h • collision gas: argon, appr. 3.3*10^−3 mbar • collision energy: 11 eV • MRM [m/z]: 128.94>85.03 Monomethylfumarate dwell:200 msec • 142.99>99.06 Monoethylfumarate (ISTD) dwell:200 msec 2.1.2. Stock and Calibration Solutions
Calibration solutions were prepared by serial dilution of SSMMF; diluted small intestinal fluid (diluted by 1/20 v/v with 50 mM KH2PO4, pH 6.8; (dil IF) was used as matrix. The dilution scheme is given below:
50 μl sample (calibration solution or sample of an incubation experiment with MMF prodrugs) was mixed with 50 μl WSISTD, 20 μl formic acid and 100 μl acetonitrile. This mixture was vortexed for 15 sec and centrifuged (13,000 rpm, 3 min). Thereafter, 4 μl of the supernatant were subjected to LC-MS analysis.
2.2. Incubation Experiments with DMF (Reference) and Compounds of the Invention
Stock solutions were prepared in DMSO or in DMSO with 10% (v/v) with water. Concentrations in stock solutions were 5.00, 2.50 and 1.67 mmol for compounds with one, two and three molar MMF equivalents.
In a HPLC glass vial, 8 μl of stock solution were mixed with 792 μl dil IF and the mixture was stirred (250 rpm) in a water bath (T=37° C.).
Immediately after mixing as well as at t=15 min, 30 min, 60 min, 90 min and 120 min, 50 μl were withdrawn and prepared for LC-MS analysis as described in chapter. 2.1.3.
Incubations were continued and in case the result of analysis of the 120 min indicated the presence of remaining intact MMF-prodrug, additional samples were taken (t=360 or 420 min and at 1,260 or 1,320 min) and analysed.
The concentration/peak area ratio data pairs were subjected to regression analysis with 1/x weighting and the resulting calibration equation was used to quantify the MMF content in incubation samples.

Row | Compound | hydrolysis to MMF (MMF release, LC-MS) compared with DMF
1 | COC(=O)/C=C/C(=O)OCCN1CCS(=O)(=O)CC1 [Example 1a, (E)-But-2-enedioic acid 2-(1,1-dioxo-1-lambda*6*-thiomorpholin-4-yl)-ethyl ester methyl ester] | significantly slower hydrolysis to MMF than DMF
2 | COC(=O)/C=C/C(=O)OCCN1CC[S+]([O-])CC1 [Example 1a′, (E)-But-2-enedioic acid methyl ester 2-(1-oxo-1lambda*4*-thiomorpholin-4-yl)-ethyl ester] | significantly slower hydrolysis to MMF than DMF
3 | COC(=O)/C=C/C(=O)OCCN1CCN(C)CC1 [Example 1b, (E)-But-2-enedioic acid methyl ester 2-(4-methyl-piperazin-1-yl) ethyl dihydrochloride] | significantly slower hydrolysis to MMF than DMF
4 | COC(=O)/C=C/C(=O)OCCN1CCN(C(C)C)CC1 [Example 1c, (E)-But-2-enedioic acid methyl ester 2-(4-isopropyl-piperazin-1-yl) ethyl dihydrochloride] | significantly slower hydrolysis to MMF than DMF
5 | COC(=O)/C=C/C(=O)OCCN(CCOC(=O)/C=C/C(=O)OC)CCOC(=O)/C=C/C(=O)OC [Example 2, tris-[2-(E)-3-methoxycarbonylacryloyloxy)-ethyl]amine hydrochloride] | significantly slower hydrolysis to MMF than DMF
6 | COC(=O)/C=C/C(=O)OCC(COC(=O)/C=C/C(=O)OC)OC(=O)/C=C/C(=O)OC [Example 3, (E)-but-2-enedioic acid 2,3-bis-(-3-methoxycarbonyl-acryloyloxy)-propyl ester methyl ester] | significantly slower hydrolysis to MMF than DMF
7 | COC(=O)/C=C/C(=O)OCOP(=O)(OC(C)(C)C)OC(C)(C)C [Example 4a, (E)-but-2-enedioic acid di-tert-butoxy-phosphoryloxymethyl ester methyl ester] | significantly slower hydrolysis to MMF than DMF
8 | COC(=O)/C=C/C(=O)OCCOC(=O)[C@@H](N)C(C)C [Example 5a, (E)-but-2-enedioic acid 2-((S)-2-amino-3-methyl-butyrryloxy)-ethyl ester methyl ester hydrochloride] | significantly slower hydrolysis to MMF than DMF
9 | COC(=O)/C=C/C(=O)OCc1oc(=O)oc1C [Example 6, (E)-but-2-enedioic acid methyl ester5-methyl-2-oxo-[1,3]dioxol-4-yl methyl ester] | significantly slower hydrolysis to MMF than DMF
